Test results published in patent publication US7666868B2, “N-sulphonylpyrroles and their use as histone deacetylase inhibitors” (4SC AG, priority 2005, dated 2010).

system: histone H3 acetylation (lysine 9+14) in HeLa cervical carcinoma cells; assay: Cellular histone H3 acetylation assay; format: cell-based; conditions: Homo sapiens, 24 h incubation with compound, read-out: EC50 (histone H3 acetylating cellular potency)
Description: To assess the cellular efficacy of an histone deactylase inhibitor in vitro, an assay is set up in black clear-bottom 96-well plates and optimized for use on the Cellomics “ArrayScan II” platform for a quantitative calculation of histone acetylation. The protocol uses a polyclonal rabbit antibody, specifically binding to acetylated lysine 9+14 of human histone H3 on fixed cells with an Alexa Fluor 488 labeled goat ant rabbit-IgG used for counterstaining (modified from Braunger et al. MCR annual conference 2003, Abstract 4556).
5×10^3 HeLa cervical carcinoma cells/well (ATCC CCL-2) in 200 μl Dulbecco's modified Eagle's medium (DMEM) containing 10% fetal calf serum are seeded at day 1 in Packard view plates and incubated for 24 h under standard cell culture conditions. On day 2, 2 μl test compound (100× final concentration) is added and incubation continued for further 24 h. On day 3, the culture medium is discarded and attached cells fixed for 15 min at room temperature by addition of 100 μl fixation buffer (3.7% v:v formaldehyde in phosphate buffered saline/PBS). After discarding the fixation buffer and one wash with PBS, cells are permeabilized at room temperature by addition of 100 μl/well permeabilization buffer (30.8 mM NaCl, 0.54 mM Na2HPO4, 0.31 mM KH2PO4, 5% v:v Triton X-100) for 15 min at room temperature. After discarding the permeabilization buffer and washing twice with 100 μl/well blocking solution (PBS with 0.05% v:v Tween 20 and 5% w:v milk powder) at room temperature, the 1st antibody (anti-K9+14 histone H3 antibody, Calbiochem No. 382158) in blocking solution (50 μl/well) is added. After incubation for 1 h at 37° C., the wells are washed twice at room temperature with 100 μl/well blocking solution before addition of the 2nd antibody (goat-anti-rabbit Alexa Fluor 488; MoBiTec No. A-11008) in blocking solution (50 μl/well). After further incubation for 1 h at 37° C., wells are washed twice with 100 μl/well blocking solution room temperature. Finally, 100 d/well PBS are added and image analysis performed on the Cellomics “ArrayScan II” platform. For calculation of EC50 values, the nuclear fluorescence in cells treated with and without a reference HDAC inhibitor (eg NVP-LBH-589) are taken as a positive and negative control. For EC50 determination, the percentage of positive cells is determined and EC50 calculation done from concentration-effect curves by means of non-linear regression.

EC50, 0.027 to 4.4 µM:
CN(C)Cc1ccccc1-c1ccc(S(=O)(=O)n2ccc(/C=C/C(=O)NO)c2)cc1 [Compound 27, (E)-3-[1-(2′-Dimethylaminomethyl-biphenyl-4-sulfonyl)-1H-pyrrol-3-yl]-N-hydroxy-acrylamide]
CN1CCN(c2cc(-c3ccc(S(=O)(=O)n4ccc(/C=C/C(=O)NO)c4)cc3)ccn2)CC1 [Compound 28, (E)-N-Hydroxy-3-(1-{4-[2-(4-methyl-piperazin-1-yl)-pyridin-4-yl]-benzenesulfonyl}-1H-pyrrol-3-yl)-acrylamide]
CN(C)CCNC(=O)c1ccc(-c2cccc(S(=O)(=O)n3ccc(C=CC(=O)NO)c3)c2)cc1 [Compound 30, 3′-3-((E)-2-Hydroxycarbamoyl-vinyl)-pyrrole-1 sulfonyl]-biphenyl-4-carboxylic acid (2-dimethylamino-ethyl)-amide]
O=C(/C=C/c1ccn(S(=O)(=O)c2cccc(-c3cccc(CN4CCOCC4)c3)c2)c1)NO [Compound 31, (E)-N-Hydroxy-3-[1-(3′-morpholin-4-ylmethyl-biphenyl-3-sulfonyl)-1H-pyrrol-3-yl]-acrylamide]
CN1CCN(c2cc(-c3cccc(S(=O)(=O)n4ccc(/C=C/C(=O)NO)c4)c3)ccn2)CC1 [Compound 33, (E)-N-Hydroxy-3-(1-{3-[2-(4-methyl-piperazin-1-yl)-pyridin-4-yl]-benzenesulfonyl}-1H-pyrrol-3-yl)-acrylamide]
O=C(/C=C/c1ccn(S(=O)(=O)c2cccc(-c3ccc(OCCN4CCOCC4)cc3)c2)c1)NO [Compound 34, (E)-N-Hydroxy-3-{1-[4′-(2-morpholin-4-yl-ethoxy)-biphenyl-3-sulfonyl]-1H-pyrrol-3-yl}-acrylamide]
O=C(/C=C/c1ccn(S(=O)(=O)c2cccc(-c3ccc(CN4CCOCC4)cc3)c2)c1)NO [Compound 36, (E)-N-Hydroxy-3-[1-(4′-morpholin-4-ylmethyl-biphenyl-3-sulfonyl)-1H-pyrrol-3-yl]-acrylamide]
CN(C)Cc1ccc(-c2cccc(S(=O)(=O)n3ccc(/C=C/C(=O)NO)c3)c2)cc1 [Compound 37, (E)-3-[1-(4′-Dimethylaminomethyl-biphenyl-3-sulfonyl)-1H-pyrrol-3-yl]-N-hydroxy-acrylamide]
CN1CCN(c2cc(-c3ccc(S(=O)(=O)n4ccc(/C=C/C(=O)NO)c4)s3)ccn2)CC1 [Compound 42, (E)-N-Hydroxy-3-(1-{5-[2-(4-methyl-piperazin-1-yl)-pyridin-4-yl]-thiophene-2-sulfonyl}-1H-pyrrol-3-yl)-acrylamide]
O=C(/C=C/c1ccn(S(=O)(=O)c2cccc(-c3ccc(OCCN4CCCC4)cc3)c2)c1)NO [Compound 43, (E)-N-Hydroxy-3-{1-[4′-(2-pyrrolidin-1-yl-ethoxy)-biphenyl-3-sulfonyl]-1H-pyrrol-3-yl}-acrylamide]
CN(C)Cc1ccc(-c2ccc(S(=O)(=O)n3ccc(/C=C/C(=O)NO)c3)s2)cc1 [Compound 46, (E)-3-{1-[5-(4-Dimethylaminomethyl-phenyl)-thiophene-2-sulfonyl]-1H-pyrrol-3-yl}-N-hydroxy-acrylamide]
O=C(/C=C/c1ccn(S(=O)(=O)c2ccc(-c3ccc(CN4CCOCC4)cc3)s2)c1)NO [Compound 54, (E)-N-Hydroxy-3-{1-[5-(4-morpholin-4-ylmethyl-phenyl)-thiophene-2-sulfonyl]-1H-pyrrol-3-yl}-acrylamide]
O=C(/C=C/c1ccn(S(=O)(=O)c2ccc(-c3ccc(OCCN4CCOCC4)cc3)s2)c1)NO [Compound 56, (E)-N-Hydroxy-3-(1-{5-[4-(2-morpholin-4-yl-ethoxy)-phenyl]-thiophene-2-sulfonyl}-1H-pyrrol-3-yl)-acrylamide]
O=C(/C=C/c1ccn(S(=O)(=O)c2ccc(-c3ccc(OCCCN4CCOCC4)cc3)s2)c1)NO [Compound 57, (E)-N-Hydroxy-3-(1-{5-[4-(3-morpholin-4-yl-propoxy)-phenyl]-thiophene-2-sulfonyl}-1H-pyrrol-3-yl)-acrylamide]
